Data published in publication PMC8781304, “Arene-Ruthenium(II) Complexes with Carbothiamidopyrazoles as a Potential Alternative for Antibiotic Resistance in Human” (Molecules, 2022).
Read-outs that look alike come from different tables or passages of the source.

Assays:
[1] = test system: Staphylococcus aureus ATCC 29213; experiment: Fluorescence microscopy, Hoechst 33258 / propidium iodide viability; format: cell-based; settings: S. aureus ATCC 29213; MIC concentration, 24 h
Method: (§1) Staphylococcus aureus ATCC 29213 and Staphylococcus epidermidis ATCC 12228 strains were treated with tested compounds 2a–2d and 3a–3d at a concentration 1 × MIC for 24h, while untreated cells were used as a growth control. After incubation, the cells were harvested and a suspension of 1 × 10^5 cells/mL in PBS was prepared. Following this, 1 µl of the fluorescent dyes Hoechst 33258 and propidium iodide (15 µg/mL each) (Sigma, St. Louis, MO, USA) were added. The obtained mixture was incubated in the dark at room temperature for 15–20 min. After incubation, the cell suspensions, placed on glass slides, were analyzed under an Olympus IX 70 fluorescence microscope (Shinjuku, Tokyo, Japan), using a 360–370 nm UV filter. Photos were taken at 10 × 20 magnification.

[2] = test system: Staphylococcus epidermidis ATCC 12228; experiment: as above; format: cell-based; settings: S. epidermidis ATCC 12228; MIC concentration, 24 h
Method: as §1

[3] = test system: S. epidermidis ATCC 12228; experiment: Synergy with oxacillin and vancomycin, partial checkerboard broth microdilution; format: cell-based, Staphylococcus epidermidis; settings: S. epidermidis ATCC 12228; for FIC (Oxa) / FIC (Van): MIC antibiotic in combination/MIC antibiotic alone; for MIC Oxa in Combination: oxacillin with the complex at ½ MIC (NH4PF6 250 µg/mL); for MIC Van in Combination: vancomycin with the complex at ½ MIC (NH4PF6 250 µg/mL)
[4] = test system: Supercoiled plasmid pUC57 DNA; parameters: method as in PMID 35540189; settings: studied previously; cited from earlier work
[5] = test system: S. epidermidis ATCC 12228; experiment: Time-kill test; format: cell-based, Staphylococcus epidermidis; settings: 1 × MIC
Method: (§2) The time-kill experiments were performed as described previously. Briefly, inocula were prepared in TSB medium (TSB; […] BTL Sp. z o.o., Łódź, Poland). All samples were incubated at 35 °C and 80 rpm for varied time intervals (2, 4, 6, 12, 18, 24, 48h). The percentage of dead cells was calculated according to the growth control by determining the number of living cells (CFU/mL) of each tube using the agar plate count method. Samples were immediately serially diluted ten-fold in 0.01 M phosphate buffered saline (PBS, Bimed Lublin S.A., Lublin, Poland) at pH 7.0 and 10 μL aliquots were spot-inoculated in duplicate onto MHA plates. Agar plates were incubated at 37 °C overnight before determining the viable count. Two independent experiments were carried out.

[6] = test system: S. aureus ATCC 29213; experiment: Synergy with oxacillin and vancomycin, partial checkerboard broth microdilution; format: cell-based, Staphylococcus aureus; settings: S. aureus ATCC 29213; for FIC (Oxa) / FIC (Van): MIC antibiotic in combination/MIC antibiotic alone; for MIC Oxa in Combination: oxacillin with the complex at ½ MIC (NH4PF6 250 µg/mL); for MIC Van in Combination: vancomycin with the complex at ½ MIC (NH4PF6 250 µg/mL)
[7] = test system: S. aureus ATCC 29213; experiment: Time-kill test; format: cell-based, Staphylococcus aureus; settings: 1 × MIC
Method: as §2

[8] = test system: S. epidermidis ATCC 12228; experiment: Cell lysis (bacteriolysis, OD600); format: cell-based, Staphylococcus epidermidis; settings: 1 × MBC
[9] = test system: WM-115 melanoma cell line; settings: cited from earlier work
[10] = read-out: IC50 (cytotoxicity), WM-115 melanoma cell line

CCc1cc(CC)n(C(N)=S)n1.Cc1ccc(C(C)C)cc1.[Cl-].[Cl][Ru+] [Compound 2b]
Change in bacterial viability (Hoechst 33258 / PI fluorescence) [1]: Less changes in cell survival
Change in bacterial viability (Hoechst 33258 / PI fluorescence) [2]: Less changes in cell survival
Correlation with Oxa and Van (synergy), in words [3]: synergistic effect in all tested configurations
FIC (Oxa) [3]: 0.06
FIC (Van) [3]: 0.03
MIC Oxa in Combination [3]: 0.015 µg/mL
MIC Van in Combination [3]: 0.015 µg/mL
Nicking of DNA Form I into Form II and III [4]: nick the DNA Form I into Form II and III
Time-kill: bacteriostatic or bactericidal [5]: bacteriostatic
Correlation with Oxa and Van (synergy), in words [6]: synergistic effects
FIC (Oxa) [6]: 0.5
FIC (Van) [6]: 0.5
MIC Oxa in Combination [6]: 0.125 µg/mL
MIC Van in Combination [6]: 0.25 µg/mL
Time-kill: bacteriostatic or bactericidal [7]: bacteriostatic
Cell lysis, change of OD600 [8]: not found to change OD600 values

Cc1ccc(C(C)C)cc1.NC(=S)n1nc(-c2ccccc2)cc1O.[Cl-].[Cl][Ru+] [Compound 2c]
Change in bacterial viability (Hoechst 33258 / PI fluorescence) [1]: greatest changes in bacterial viability
Change in bacterial viability (Hoechst 33258 / PI fluorescence) [2]: greatest changes in bacterial viability
FIC (Oxa) [3]: 0.25
FIC (Van) [3]: 1
MIC Oxa in Combination [3]: 0.06 µg/mL
MIC Van in Combination [3]: 0.5 µg/mL
Time-kill: bacteriostatic or bactericidal [5]: bactericidal
Correlation with Oxa and Van (synergy), in words [6]: synergistic effects
FIC (Oxa) [6]: 0.5
FIC (Van) [6]: 0.5
MIC Oxa in Combination [6]: 0.125 µg/mL
MIC Van in Combination [6]: 0.25 µg/mL
Time-kill: bacteriostatic or bactericidal [7]: bacteriostatic
Cell lysis, change of OD600 [8]: quite moderate decrease in OD600
IC50 [9, 10]: 26.7 µM

Cc1cc(O)n(C(N)=S)n1.Cc1ccc(C(C)C)cc1.[Cl-].[Cl][Ru+] [Compound 2d]
Change in bacterial viability (Hoechst 33258 / PI fluorescence) [1]: no significant changes in the viability
Change in bacterial viability (Hoechst 33258 / PI fluorescence) [2]: no significant changes in the viability
FIC (Oxa) [3]: 0.5
FIC (Van) [3]: 1
MIC Oxa in Combination [3]: 0.125 µg/mL
MIC Van in Combination [3]: 0.5 µg/mL
Nicking of DNA Form I into Form II and III [4]: nick the DNA Form I into Form II and III
FIC (Oxa) [6]: 0.5
FIC (Van) [6]: 1
MIC Oxa in Combination [6]: 0.125 µg/mL
MIC Van in Combination [6]: 0.50 µg/mL
IC50 [9, 10]: 7.9 µM

N.N.[Cl][Pt][Cl] [cisplatin, reference compound]
IC50 [9]: 18.2 µM
